Experimental data reported in EPA's aquatic toxicity sets.

test system: Tetrahymena pyriformis; experiment: 48 h IGC50 (-log10 mol/L); higher = more toxic

SMILES	48 h IGC50 (-log10 mol/L)
O=C(CCl)CCl	5.05
O=[N+]([O-])c1ccc(O)c(O)c1	4.17
Cc1ccc(Br)s1	3.65
O=C(c1ccccc1O)c1ccccc1O	4.16
NC(=O)CCCl	1.41
CCOC(=O)Cc1ccc(O)c(OC)c1	2.77
O=C(O)c1c(Cl)cc(Cl)cc1Cl	2.59
O=[N+]([O-])c1ccc(F)cc1O	4.12
CCC(=O)c1ccccc1	2.93
O=c1ccc(Cl)c[nH]1	2.25
CC(=O)OCCCCCBr	3.29
CC#Cc1ccccc1	3.19
CCCCCCCCC=O	3.81
CCCC[N+](=O)[O-]	2.31
O=C(CBr)c1ccsc1	5.22
O=Cc1ccccc1F	3.08
Cc1ccc(Cl)c(C=O)c1F	3.74
CC(C)CC(=O)O	2.66
CC(C)(Br)C(=O)O	2.42
O=[N+]([O-])c1c(F)c(F)c(F)c(F)c1F	5.43
COc1cc(C=O)cc(OC)c1O	3.17

SMILES	48 h IGC50 (-log10 mol/L)
OCCCCc1ccccc1	3.12
N#Cc1ccc(Cl)s1	2.92
CCCCC(=O)c1ccccc1	3.56
Cc1nccnc1C	2.13
O=C(O)c1cccc(Cl)c1	2.87
Fc1cc(F)c(F)nc1F	2.39
C=C(C)C(=O)OCCCCCC	4.09
Oc1ccc(Cl)c(O)c1	3.13
CC(Cl)C#N (stereo not drawn)	2.14
Cc1cc[nH]c(=O)c1[N+](=O)[O-]	2.5
NCC(O)CN	1.57
Cc1ccsc1	2.3
OCc1ccccc1-c1ccccc1	3.82
Cc1ccc(Br)cc1	3.47
CCCCCC(=O)OC	2.44
N#C/C=C/c1ccccc1	3.16
O=[N+]([O-])c1ccccc1Cl	3.68
N#Cc1ccc(C=O)cc1	3.04
NCc1ccccc1	2.76
C/C=C/C(=O)OC	2.08
CC(C)CCCO	2.36

SMILES	48 h IGC50 (-log10 mol/L)
CCOC(=O)C(C)(C)Br	3.15
CCCCCCCCOC(=O)CC#N	3.9
CC(C)COC(=O)c1ccccc1	3.98
CCCCC#CC(=O)OCC	4.11
CCCCCC(C)O (stereo not drawn)	2.53
C=COC(=O)/C=C/C	2.85
CCCCCN=C=S	4.71
Cc1nc2ccccc2nc1C	3.25
NC(N)=NC(N)=Nc1ccccc1	2.61
CCCCC(=O)C(C)=O	3.04
CCCCC(Br)C(=O)O (stereo not drawn)	3.46
CCCCC/C=C/C(=O)O	3.21
CC(=O)CCc1ccc(O)cc1	2.5
O=Cc1ccc(O)cc1Cl	3.89
CCCCC(Br)CBr (stereo not drawn)	4.15
O=C(O)CCCCCCCBr	4.32
O=Cc1ccc2c(c1)Cc1ccccc1-2	4.5
O=C1CCCC(=O)C1	2.07
Oc1cccc(Cl)c1Cl	4.28
CCN=C=S	4.63
Cc1cc(O)cc(C)c1Br	4.27

SMILES	48 h IGC50 (-log10 mol/L)
O=C1CCC(=O)CC1	1.33
CC(=O)c1ccc(C)o1	2.17
CC(C)C[C@H](N)CO	2.38
O=[N+]([O-])c1cc(I)c(O)c(I)c1	4.81
N#CC(Cl)(Cl)Cl	4.88
c1csc(-c2cccs2)c1	4.04
CCOC(=O)c1ccc(O)cc1	3.57
CCOC(=O)c1ccc(Cl)cc1	3.75
CC(=O)c1cc(C)c(C)cc1O	3.71
CCC(C)OC(C)=O (stereo not drawn)	2.32
CC(=O)OCCCCBr	3.39
Cc1cnccn1	1.91
CCCCC(CC)COC(=O)c1ccc(O)cc1 (stereo not drawn)	5.51
Cc1cc(O)c(C(C)C)cc1Cl	4.85
O=C(OCc1ccccc1)c1ccccc1	4.45
CC(C)(C)C(N)=O	1.52
CCCCCCC=O	3
O=Cc1ccc([N+](=O)[O-])s1	4.98
CCCCCOc1ccc(O)cc1	4.36
COc1cc(O)cc(Cl)c1	3.76
